Values joined by “and” are separate entries in the source; they are usually repeats but may differ in a detail not shown here. Equal entries are not always repeated. “Also recorded” adds a separate entry of the source.

Data on three molecules can be found in patent publication US9834540B2, “Omeprazole Sodium semihydrate and preparation method thereof” (TIANJIN UNIVERSITY, priority 2015, dated 2017).

For series [1] the following is noted: prior-art description; cited from earlier work.
Series [2] is described as follows: DSC analysis, thermal decomposition temperature. The series is classed as physicochemical. Conditions: 10° C./min, 25˜300° C. The protocol:
The DSC data is obtained by analysis using a differential scanning calorimetry (DSC1/500, Mettler Toledo Corporation, Switzerland), and the analysis conditions are as follows: adding 10 mg of sample to a 40 μL Aluminum crucible, providing high-purity nitrogen as reaction gas and shield gas with a gas-flow rate of 50 mL/min and 20 mL/min, and raising the temperature at a rate of 10° C./min and a range of 25˜300° C.

Series [3] relates to male and female rats. Conditions: rat, in vivo.
The nature of series [4]: Toxic responses, overall comparison. Conditions: in words.
Series [5] in a line: Hygroscopicity at 40° C. by dynamic vapor sorption. The series is classed as physicochemical.
Series [6] in a line: Thermal stability test at 60° C. (airtight container, 10 days, weighed regularly). Conditions: for Change of crystal form / X-ray powder diffraction pattern after deposit at 60° C.: 10 days. The series is classed as physicochemical.
Series [7] is described as follows: Drug mutation test.
The test system of series [8] is rats. As to the kind of experiment: Carcinogenic test in rats within 24 months. The series is classed as in vivo. Conditions: 24 months persistently treated.
A short description of series [9]: Flowability (carr index). The series is classed as physicochemical.
Series [10] deals with male and female rats. As to the kind of experiment: Reproductive toxicity test. Conditions: oral 138 mg/kg/day.
The nature of series [11]: Deposit at 40° C. and relative humidity 75% for 3 days. It counts as physicochemical. Conditions: relative humidity 75%. The method, then:
0.45 g of Omeprazole Sodium monohydrate, 20 mL of ethyl acetate and 10 mL of s-butanol were added to a crystallizer, and the mixture was stirred at a temperature of 35° C. and a speed of 200 r/min for 2 hours, followed by filtrating and drying to provide 0.42 g of Omeprazole Sodium semihydrate with a mole yield of 95.6% and a HPLC purity of 99.8%. The product had same X-ray powder diffraction pattern as FIG. 1, same solid Fourier transform infrared spectrum as FIG. 2, and DSC decomposition temperature of 227.5° C.

The nature of series [12]: Toxic responses test, lethal dose in mice. Conditions: mouse, in vivo.
The subject of series [13] is rats. Conditions: rat, in vivo, 140 mg/kg/day.
A short description of series [14]: Toxic responses test, intravenous lethal dose in rats. Conditions: rat, in vivo, read-out: intravenous LD50 (median lethal dose).
Series [15] relates to dogs. Conditions: dog, in vivo.
For series [16], the system named is stomach ECL cells. Conditions: rat, in vivo.
[17] abbreviates: listed as Example 1, sodium salt.
Setting [18] is: listed as Example 2, sodium salt.
Setting [19] is: listed as Example 3, sodium salt.

`COc1ccc2[nH]c([S+]([O-])Cc3ncc(C)c(OC)c3C)nc2c1` (stereo not drawn) [Omeprazole Sodium hydrate]: the “stability (in words)” value in series [1] is reported as “poor stability”.

For the molecule `COc1ccc2[n-]c([S+]([O-])Cc3ncc(C)c(OC)c3C)nc2c1.[Na+]` (stereo not drawn) [Omeprazole Sodium semihydrate], the “thermal decomposition temperature (DSC decomposing exothermic peak)” value in [2] (setting [17]) is 227.5 °C; in series [2] (setting [18]), 229.2 °C; in series [2] (setting [19]), 229.5 °C; in series [2] (sodium salt), 228.5±1 °C and 228.5 °C. Further, the “reproductive toxicity test result” value in [3] is recorded as “negative”. Moreover, the “toxicity compared with existing Omeprazole Sodium or monohydrate” value in series [4] is reported as “improved toxicity”. Also, the “hygroscopicity compared with Omeprazole Sodium monohydrate” value in [5] (in words) was “lower hygroscopicity”. Further, the Weight changing rate in series [5] (relative humidity 0%) is 0%; in [5] (relative humidity 5%) it was 0.001%; in [5] (relative humidity 10%) it was 0.004%; in series [5] (relative humidity 15%), 0.01%; in series [5] (relative humidity 20%), 0.02%; in [5] (relative humidity 25%), 0.02%. Moreover, the Weight changing rate was found to be 0.03% in series [5] (relative humidity 30%); 0.03% in series [5] (relative humidity 35%); 0.03% in series [5] (relative humidity 40%); 0.14% in [5] (relative humidity 45%); 0.17% in series [5] (relative humidity 50%); 0.28% in [5] (relative humidity 55%). Also, the Weight changing rate was found to be 0.37% in series [5] (relative humidity 60%); 0.45% in series [5] (relative humidity 65%); 0.53% in [5] (relative humidity 70%); 0.69% in series [5] (relative humidity 75%); 0% in series [6] (0 day); 1.1% in [6] (5 day). Also, the Weight changing rate in series [6] (10 day, listed as Example 1, sodium salt) is listed as 2.4%; in [6] (10 day, listed as Example 2, sodium salt), 2.5%; in series [6] (10 day, listed as Example 3, sodium salt), 2.4%; in series [11], 0.68%. Moreover, the figures for the Weight of sample in series [6] (0 day), in series [6] (5 day) and in [6] (10 day) were 9.5852 g, 9.4826 g and 9.3790 g, respectively. Besides, the “Change of crystal form / X-ray powder diffraction pattern after deposit at 60° C.” value is reported as “without making any significant changes in the X-ray powder diffraction pattern” in series [6] (setting [17]), “without making any significant changes in the X-ray powder diffraction pattern” in [6] (setting [18]), “without making any significant changes in the X-ray powder diffraction pattern” in series [6] (setting [19]) and “does not make any significant change” in series [6] (sodium salt). For the same molecule, the “drug mutation test result” value in [7] was “negative”. Also, the “carcinogenic test: gastric mucosa finding” value in series [8] is “enterochromaffin-like cell hyperplasia in gastric mucosa”. In addition, in series [8] (sodium salt), the “carcinogenic test: carcinogenesis / cancer metastasis” value is “cancer metastasis is not found; also recorded: carcinogenesis occurred without cancer metastasis”. The carr index in [9] (setting [17]) is reported as 14.3%; in series [9] (setting [18]) it was 13.9%; in series [9] (setting [19]), 14.7%; in series [9] (sodium salt), “less than 15%”. Moreover, the “influence on reproductive performance” value in series [10] is reported as “no influence on reproductive performance”.

In the case of `COc1ccc2[nH]c([S+]([O-])Cc3ncc(C)c(OC)c3C)nc2c1` (stereo not drawn) [Omeprazole], the LD50 (usually the dose expected to kill half of the subjects tested) in series [12] (mice, intravenous, read-out: Intravenous LD50) is 82.8 mg/kg; in series [12] (oral, species not restated, follows mice, read-out: oral LD50), > 2000 mg/kg; in series [14], 302 mg/kg. In addition, in series [13], the long-term toxicity findings result was “liver and kidney increased in weight without histologic changes”. Also, the “Intravenous LDLo (lowest published lethal dose)” value in [15] turned out to be 500 mg/kg. For the same molecule, the “stomach ECL cell findings in long-term treatment” value in series [16] is “cell increase and benign tumour were observed in stomach ECL cells”.
